Converted amounts (≈) assume the structure as drawn. Like-named read-outs stand apart in the source and are kept apart here.
Tests used:
Solubility in PBS = assay type: physicochemical
Method in brief: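 Read-out is the HPLC peak area of the supernatant from ultracentrifuged PBS solution, scaled against a 50 μM peptide DMSO injection; value reported as [(PBS area)/(DMSO area)]*50 uM.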

CHI Log D procedure = assay type: physicochemical; conditions: for CHI Log D: pH 7.4; for chromatographic logD: pH 7.4, CHI Log D
[1] = molecular target: T1, full-length beta-Catenin (Uniprot ID P35222) (Homo sapiens, UniProt P35222); assay: Fluorescence polarization IC50 (beta-catenin / 5FAM-TCF4 10-53 competition); assay type: binding
T1 construct: 10 nM full-length beta-Catenin (Uniprot ID P35222)
T1 sequence (P35222 1-781): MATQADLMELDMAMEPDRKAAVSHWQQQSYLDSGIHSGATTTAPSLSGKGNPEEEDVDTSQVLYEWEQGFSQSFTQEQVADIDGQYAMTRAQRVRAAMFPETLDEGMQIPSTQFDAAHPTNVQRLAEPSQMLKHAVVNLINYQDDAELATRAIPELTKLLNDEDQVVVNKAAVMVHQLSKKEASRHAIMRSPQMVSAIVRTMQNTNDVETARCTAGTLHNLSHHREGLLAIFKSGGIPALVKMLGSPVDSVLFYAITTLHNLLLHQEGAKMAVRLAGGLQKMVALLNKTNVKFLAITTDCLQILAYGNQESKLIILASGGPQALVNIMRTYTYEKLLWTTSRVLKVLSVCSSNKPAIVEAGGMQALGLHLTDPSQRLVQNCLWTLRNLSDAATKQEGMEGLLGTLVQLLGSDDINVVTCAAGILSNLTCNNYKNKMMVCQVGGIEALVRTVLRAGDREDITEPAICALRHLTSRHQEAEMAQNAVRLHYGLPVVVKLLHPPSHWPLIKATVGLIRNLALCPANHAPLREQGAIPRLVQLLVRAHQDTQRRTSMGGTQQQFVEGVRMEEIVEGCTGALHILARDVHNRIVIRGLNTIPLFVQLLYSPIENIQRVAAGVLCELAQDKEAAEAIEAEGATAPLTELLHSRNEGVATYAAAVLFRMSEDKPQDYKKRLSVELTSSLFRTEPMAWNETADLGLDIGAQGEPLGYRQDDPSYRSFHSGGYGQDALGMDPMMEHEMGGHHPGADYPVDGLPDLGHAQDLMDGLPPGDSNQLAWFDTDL

[2] = fluorescence polarization, beta-catenin, read-out: FP EC50

| SMILES | Solubility (Solubility in PBS) | CHI Log D (CHI Log D procedure) | IC50 [1, 2] | IC50 ([1]; read-out: beta-Catenin FP IC50) | chromatographic logD (CHI Log D procedure) | Solubility (Solubility in PBS; Solubility (uM)) |
| --- | --- | --- | --- | --- | --- | --- |
| CC(=O)N1CCC[C@]12CC=CCCCC1(CCCC=CCCCOC(=O)N3CC[C@@](C(=O)N[C@@H](Cc4ccsc4)C(=O)N[C@@H](Cc4csc5ccccc45)C(=O)N[C@@H](CO)C(N)=O)(C3)NC(=O)[C@H](Cc3ccccc3)NC(=O)[C@H](Cc3ccccc3)NC(=O)[C@H](C)NC(=O)[C@H](C)NC(=O)[C@H](Cc3cccc(C(=O)O)c3)NC(=O)[C@H](CC(=O)O)NC1=O)NC(=O)[C@H](CC(C)(C)C)NC(=O)[C@H](CC(=O)O)NC2=O (stereo partly drawn) [I-983, Ac-PL3-Asp-Npg-B5-Asp-3COOHF-Ala-Ala-Phe-Phe-PyrS2-3Thi-BztA-Ser-NH2] | 10 µM (≈ 19.9 µg/mL) | 1.919 | 118 nM | 118 nM |  |  |
| CC(=O)N1CCC[C@]12CC=CCCCC1(CCCC=CCCCOC(=O)N3CC[C@@](C(=O)N[C@@H](Cc4ccsc4)C(=O)N[C@@H](Cc4csc5ccccc45)C(=O)N[C@@H](CO)C(N)=O)(C3)NC(=O)[C@H](CO)NC(=O)[C@H](Cc3ccccc3)NC(=O)[C@H](C)NC(=O)[C@H](C)NC(=O)[C@H](Cc3cccc(C(=O)O)c3)NC(=O)[C@H](CC(=O)O)NC1=O)NC(=O)[C@H](CC(C)(C)C)NC(=O)[C@H](CC(=O)O)NC2=O (stereo partly drawn) [I-984, Ac-PL3-Asp-Npg-B5-Asp-3COOHF-Ala-Ala-Phe-Ser-PyrS2-3Thi-BztA-Ser-NH2] | 45 µM (≈ 86.7 µg/mL) | 1.8 | 179 nM | 179 nM |  |  |
| CC(=O)N1CCC[C@]12CC=CCCCC1(CCCC=CCCCOC(=O)N3CC[C@@](C(=O)N[C@@H](Cc4ccsc4)C(=O)N[C@@H](Cc4csc5ccccc45)C(=O)N[C@@H](CO)C(N)=O)(C3)NC(=O)[C@H](CO)NC(=O)[C@H](Cc3ccccc3)NC(=O)[C@H](C)NC(=O)[C@H](C)NC(=O)[C@H](Cc3cccc(C(=O)O)c3)NC(=O)[C@H](CC(=O)O)NC1=O)NC(=O)[C@H](CC(C)(C)C)NC(=O)[C@H](CC(=O)O)NC2=O (stereo partly drawn) [I-985, Ac-PL3-Asp-Npg-B5-Asp-3COOHF-Ala-Ala-Phe-Ser-PyrS2-3Thi-BztA-Ser-NH2] | 47 µM (≈ 90.5 µg/mL) | 1.87 | 301 nM | 431 nM |  |  |
| CC(=O)N1CCC[C@]12CC=CCCCC1(CCCC=CCCCOC(=O)N3CC[C@@](C(=O)N[C@@H](Cc4ccsc4)C(=O)N[C@@H](Cc4csc5ccccc45)C(=O)N[C@@H](CO)C(N)=O)(C3)NC(=O)[C@H](CC(C)C)NC(=O)[C@H](Cc3ccccc3)NC(=O)[C@H](C)NC(=O)[C@H](C)NC(=O)[C@H](Cc3cccc(C(=O)O)c3)NC(=O)[C@H](CC(=O)O)NC1=O)NC(=O)[C@H](CC(C)(C)C)NC(=O)[C@H](CC(=O)O)NC2=O (stereo partly drawn) [I-986, Ac-PL3-Asp-Npg-B5-Asp-3COOHF-Ala-Ala-Phe-Leu-PyrS2-3Thi-BztA-Ser-NH2] | 27 µM (≈ 52.7 µg/mL) | 1.855 | 136 nM | 136 nM |  |  |
| CC(=O)N1CCC[C@]12CC=CCCCC1(CCCC=CCCCOC(=O)N3CC[C@@](C(=O)N[C@@H](Cc4ccsc4)C(=O)N[C@@H](Cc4csc5ccccc45)C(=O)N[C@@H](CO)C(N)=O)(C3)NC(=O)[C@H](CC(C)C)NC(=O)[C@H](Cc3ccccc3)NC(=O)[C@H](C)NC(=O)[C@H](C)NC(=O)[C@H](Cc3cccc(C(=O)O)c3)NC(=O)[C@H](CC(=O)O)NC1=O)NC(=O)[C@H](CC(C)(C)C)NC(=O)[C@H](CC(=O)O)NC2=O (stereo partly drawn) [I-987, Ac-PL3-Asp-Npg-B5-Asp-3COOHF-Ala-Ala-Phe-Leu-PyrS2-3Thi-BztA-Ser-NH2] | 10 µM (≈ 19.5 µg/mL) | 2.115 | 112 nM | 112 nM |  |  |
| CC(=O)N1CCC[C@]12CC=CCCCC1(CCCC=CCCCOC(=O)N3CC[C@@](C(=O)N[C@@H](Cc4ccc(O)cc4)C(=O)N[C@@H](Cc4csc5ccccc45)C(=O)N[C@@H](CCC(N)=O)C(N)=O)(C3)NC(=O)[C@H](Cc3ccccc3)NC(=O)[C@H](Cc3ccccc3)NC(=O)[C@H](C)NC(=O)[C@H](C)NC(=O)[C@H](CN(CC(=O)O)CC(F)(F)F)NC(=O)[C@H](CC(=O)O)NC1=O)NC(=O)[C@H](CC(C)(C)C)NC(=O)[C@H](CC(=O)O)NC2=O (stereo partly drawn) [I-989, Ac-PL3-Asp-Npg-B5-Asp-TfeGA-Ala-Ala-Phe-Phe-PyrS2-Tyr-BztA-Gln-NH2] | 10 µM (≈ 20.7 µg/mL) |  |  | 87 nM | 2.1 |  |
| CC(=O)N1CCC[C@]12CC=CCCCC1(CCCC=CCCCOC(=O)N3CC[C@@](C(=O)N[C@@H](Cc4ccccc4Cl)C(=O)N[C@@H](Cc4csc5ccccc45)C(=O)N[C@H](C(N)=O)[C@@H](C)O)(C3)NC(=O)[C@H](Cc3ccccc3)NC(=O)[C@H](Cc3ccccc3)NC(=O)[C@H](C)NC(=O)[C@H](C)NC(=O)[C@H](CN(CC(=O)O)CC(F)(F)F)NC(=O)[C@H](CC(=O)O)NC1=O)NC(=O)[C@H](CC(C)(C)C)NC(=O)[C@H](CC(=O)O)NC2=O (stereo partly drawn) [I-991, Ac-PL3-Asp-Npg-B5-Asp-TfeGA-Ala-Ala-Phe-Phe-PyrS2-2C1F-BztA-Thr-NH2] | 10 µM (≈ 20.6 µg/mL) |  |  | 51 nM | 2.7 |  |
| CC(=O)N1CCC[C@]12CC=CCCCC1(CCCC=CCCCOC(=O)N3CC[C@@](C(=O)N[C@@H](Cc4ccccc4Cl)C(=O)N[C@@H](Cc4csc5ccccc45)C(=O)N[C@@H](CCO)C(N)=O)(C3)NC(=O)[C@H](Cc3ccccc3)NC(=O)[C@H](Cc3ccccc3)NC(=O)[C@H](C)NC(=O)[C@H](C)NC(=O)[C@H](CN(CC(=O)O)CC(F)(F)F)NC(=O)[C@H](CC(=O)O)NC1=O)NC(=O)[C@H](CC(C)(C)C)NC(=O)[C@H](CC(=O)O)NC2=O (stereo partly drawn) [I-992, Ac-PL3-Asp-Npg-B5-Asp-TfeGA-Ala-Ala-Phe-Phe-PyrS2-2C1F-BztA-Hse-NH2] |  |  |  | 59 nM | 2.56 | 12 µM (≈ 24.8 µg/mL) |
| CC(=O)N1CCC[C@]12CC=CCCCC1(CCCC=CCCCCCC[C@@](C)(C(=O)N[C@@H](Cc3ccccc3Cl)C(=O)N[C@@H](Cc3csc4ccccc34)C(=O)N[C@@H](CCC(N)=O)C(N)=O)NC(=O)[C@H](CC(C)C)NC(=O)[C@H](Cc3ccccc3)NC(=O)[C@H](C)NC(=O)[C@H](C)NC(=O)[C@H](CN(CC(=O)O)CC(F)(F)F)NC(=O)[C@H](CC(=O)O)NC1=O)NC(=O)[C@H](CC(C)(C)C)NC(=O)[C@H](CC(=O)O)NC2=O (stereo partly drawn) [I-994, Ac-PL3-Asp-Npg-B5-Asp-TfeGA-Ala-Ala-Phe-Leu-S8-2C1F-BztA-Gln-NH2] | 10 µM (≈ 20.1 µg/mL) |  |  | 121 nM | 3.21 |  |
| CC(=O)N1CCC[C@]12CC=CCCCC1(CCCC=CCCCCCC[C@@](C)(C(=O)N[C@@H](Cc3ccccc3Cl)C(=O)N[C@@H](Cc3csc4ccccc34)C(=O)N[C@@H](CCC(N)=O)C(N)=O)NC(=O)[C@H](CO)NC(=O)[C@H](Cc3ccccc3)NC(=O)[C@H](C)NC(=O)[C@H](C)NC(=O)[C@H](CN(CC(=O)O)CC(F)(F)F)NC(=O)[C@H](CC(=O)O)NC1=O)NC(=O)[C@H](CC(C)(C)C)NC(=O)[C@H](CC(=O)O)NC2=O (stereo partly drawn) [I-995, Ac-PL3-Asp-Npg-B5-Asp-TfeGA-Ala-Ala-Phe-Ser-S8-2C1F-BztA-Gln-NH2] |  |  |  | 55 nM | 2.8 | 34 µM (≈ 67.6 µg/mL) |
| CC(=O)N1CCC[C@]12CC=CCCCC1(CCCC=CCCCCCC[C@@](C)(C(=O)N[C@@H](Cc3ccccc3Cl)C(=O)N[C@@H](Cc3csc4ccccc34)C(=O)N[C@@H](CCO)C(N)=O)NC(=O)[C@H](CC(C)C)NC(=O)[C@H](Cc3ccccc3)NC(=O)[C@H](C)NC(=O)[C@H](C)NC(=O)[C@H](CN(CC(=O)O)CC(F)(F)F)NC(=O)[C@H](CC(=O)O)NC1=O)NC(=O)[C@H](CC(C)(C)C)NC(=O)[C@H](CC(=O)O)NC2=O (stereo partly drawn) [I-997, Ac-PL3-Asp-Npg-B5-Asp-TfeGA-Ala-Ala-Phe-Leu-S8-2C1F-BztA-Hse-NH2] | 10 µM (≈ 19.9 µg/mL) |  |  | 154 nM | 3.42 |  |
| CC(=O)N1CCC[C@]12CC=CCCCC1(CCCC=CCCCCCC[C@@](C)(C(=O)N[C@@H](Cc3ccccc3Cl)C(=O)N[C@@H](Cc3csc4ccccc34)C(=O)N[C@@H](CCO)C(N)=O)NC(=O)[C@H](CO)NC(=O)[C@H](Cc3ccccc3)NC(=O)[C@H](C)NC(=O)[C@H](C)NC(=O)[C@H](CN(CC(=O)O)CC(F)(F)F)NC(=O)[C@H](CC(=O)O)NC1=O)NC(=O)[C@H](CC(C)(C)C)NC(=O)[C@H](CC(=O)O)NC2=O (stereo partly drawn) [I-998, Ac-PL3-Asp-Npg-B5-Asp-TfeGA-Ala-Ala-Phe-Ser-S8-2C1F-BztA-Hse-NH2] | 43 µM (≈ 84.3 µg/mL) | 2.87 | 127 nM | 127 nM |  |  |

Reference: US20240116985A1, “STAPLED PEPTIDES AND METHODS THEREOF” (priority 2020, published 2024)
